Drawing on patent US20250017959A1 (priority 2021, published 2025), this text covers cell viability for one compound.

The data set deals with HSPC-pDC.

In the case of `CC[C@@H]1[C@H](F)C(=O)N[C@@H]1COc1nccc2cc(C(N)=O)c(OC)cc12` [IRAK4 inhibitor, Pf06650833], the cell viability entry is given as “without major effects”.
